The values that follow come from patent US11655235B2, “Pyrrolidine and piperidine compounds” (YUHAN CORPORATION, priority 2019, dated 2023).

Holding throughout (type): biochemical
The target of assay [1] is T1, recombinant human DPP8 (Homo sapiens, UniProt Q6V1X1).
T1 construct: purchased PBS Bioscience
Put plainly: DPP8 inhibition, fluorogenic substrate Z-Ala-Pro-AMC. Particulars: recombinant human DPP8. Summed up:
(§1)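 Enzyme per reaction: 50 ng DPP9, 20 ng DPP8, 10 ng each DPP7 and PREP. Compounds were serially diluted (8 points, up to 0.5% DMSO) and incubated at 25 °C.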

For assay [2], the target named is T2, recombinant human DPP9 (Homo sapiens, UniProt Q86TI2).
T2 construct: purchased R&D Systems
Put plainly: DPP9 inhibition, fluorogenic substrate H-Gly-Pro-AMC. Particulars: recombinant human DPP9. Summed up: as §1

Assay [3] addresses DPP4 (Homo sapiens, UniProt P27487). Put plainly: DPP4 inhibition, fluorogenic substrate H-Gly-Pro-AMC. On the set-up: purchased R&D Systems. Particulars: recombinant human DPP4.
In assay [4] the target is T3, Recombinant human FAP (Homo sapiens, UniProt Q12884).
T3 construct: purchased R&D systems
T3 sequence (Q12884 1-760): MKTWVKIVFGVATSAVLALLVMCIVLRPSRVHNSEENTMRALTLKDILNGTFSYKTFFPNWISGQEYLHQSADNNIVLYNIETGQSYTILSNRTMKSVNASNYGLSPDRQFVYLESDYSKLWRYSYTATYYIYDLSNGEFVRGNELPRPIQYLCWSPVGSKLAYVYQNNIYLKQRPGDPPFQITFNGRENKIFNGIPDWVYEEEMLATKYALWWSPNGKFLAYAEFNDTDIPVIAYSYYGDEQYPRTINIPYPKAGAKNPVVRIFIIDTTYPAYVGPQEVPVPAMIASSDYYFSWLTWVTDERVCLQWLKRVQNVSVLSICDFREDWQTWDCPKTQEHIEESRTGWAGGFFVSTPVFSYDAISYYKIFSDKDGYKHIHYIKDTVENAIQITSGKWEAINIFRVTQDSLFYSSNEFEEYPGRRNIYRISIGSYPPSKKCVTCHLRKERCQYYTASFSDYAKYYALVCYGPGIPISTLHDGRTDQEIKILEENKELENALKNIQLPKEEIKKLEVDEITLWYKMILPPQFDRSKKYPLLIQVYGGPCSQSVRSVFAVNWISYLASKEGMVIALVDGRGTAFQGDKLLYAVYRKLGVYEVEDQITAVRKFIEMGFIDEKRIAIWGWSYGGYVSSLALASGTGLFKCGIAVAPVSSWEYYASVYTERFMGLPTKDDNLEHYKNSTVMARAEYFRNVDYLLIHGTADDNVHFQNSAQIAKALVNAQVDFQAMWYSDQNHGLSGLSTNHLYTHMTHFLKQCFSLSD
Put plainly: FAP FRET assay, FGF21-sequence FRET peptide substrate. The conditions noted are these: FRET peptide with human FGF21 sequence, 6 μM, 37° C. Summed up:
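Recombinant human FAP, 10 ng per reaction, in 50 mM HEPES pH 7.2 with 150 mM NaCl, 0.1 mg/ml BSA, 1 mM EDTA; HyLite Fluor 488/QXL 520 FRET peptide of human FGF21 sequence at 6 μM final, ≤0.1% DMSO, 37° C. IC50 from 8-point curves by four-parameter logistic fit.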

The target in assay [5] is T4, recombinant human PREP (Homo sapiens, UniProt P48147).
T4 construct: purchased R&D System
T4 sequence (P48147 1-710): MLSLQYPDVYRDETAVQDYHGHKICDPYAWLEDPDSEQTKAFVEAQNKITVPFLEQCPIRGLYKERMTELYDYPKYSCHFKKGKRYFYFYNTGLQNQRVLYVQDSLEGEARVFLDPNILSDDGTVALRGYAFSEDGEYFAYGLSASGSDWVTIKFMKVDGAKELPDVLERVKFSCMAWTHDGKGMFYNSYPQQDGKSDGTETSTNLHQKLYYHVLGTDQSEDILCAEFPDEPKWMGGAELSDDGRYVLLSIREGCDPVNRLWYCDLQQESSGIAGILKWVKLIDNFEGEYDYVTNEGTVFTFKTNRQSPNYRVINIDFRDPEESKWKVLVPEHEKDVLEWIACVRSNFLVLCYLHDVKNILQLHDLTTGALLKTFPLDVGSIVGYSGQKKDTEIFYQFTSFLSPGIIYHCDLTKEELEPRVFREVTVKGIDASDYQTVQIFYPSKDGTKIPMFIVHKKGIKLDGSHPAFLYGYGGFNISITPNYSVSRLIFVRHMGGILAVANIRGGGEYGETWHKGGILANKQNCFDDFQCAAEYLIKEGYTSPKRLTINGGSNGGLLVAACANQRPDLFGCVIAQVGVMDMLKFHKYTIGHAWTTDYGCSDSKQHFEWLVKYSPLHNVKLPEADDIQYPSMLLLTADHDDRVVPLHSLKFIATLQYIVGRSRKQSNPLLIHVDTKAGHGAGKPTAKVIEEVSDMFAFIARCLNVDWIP
Put plainly: PREP inhibition, fluorogenic substrate Z-Gly-Pro-AMC. Particulars: Inhibitory Activity (IC50, nM) PREP, recombinant human PREP. Summed up: as §1

Assay [6] concerns the target T5, recombinant human DPP7 (Homo sapiens, UniProt Q9UHL4).
T5 construct: purchased R&D Systems
Put plainly: DPP7 inhibition, fluorogenic substrate Lys-Pro-AMC. Particulars: recombinant human DPP7. Summed up:
as §1

The structures appear in SMILES notation. pIC50: −log10 of the molar value. Where only a bound is given, the exact number is not on record here.

T1 sequence (Q6V1X1 whole entry): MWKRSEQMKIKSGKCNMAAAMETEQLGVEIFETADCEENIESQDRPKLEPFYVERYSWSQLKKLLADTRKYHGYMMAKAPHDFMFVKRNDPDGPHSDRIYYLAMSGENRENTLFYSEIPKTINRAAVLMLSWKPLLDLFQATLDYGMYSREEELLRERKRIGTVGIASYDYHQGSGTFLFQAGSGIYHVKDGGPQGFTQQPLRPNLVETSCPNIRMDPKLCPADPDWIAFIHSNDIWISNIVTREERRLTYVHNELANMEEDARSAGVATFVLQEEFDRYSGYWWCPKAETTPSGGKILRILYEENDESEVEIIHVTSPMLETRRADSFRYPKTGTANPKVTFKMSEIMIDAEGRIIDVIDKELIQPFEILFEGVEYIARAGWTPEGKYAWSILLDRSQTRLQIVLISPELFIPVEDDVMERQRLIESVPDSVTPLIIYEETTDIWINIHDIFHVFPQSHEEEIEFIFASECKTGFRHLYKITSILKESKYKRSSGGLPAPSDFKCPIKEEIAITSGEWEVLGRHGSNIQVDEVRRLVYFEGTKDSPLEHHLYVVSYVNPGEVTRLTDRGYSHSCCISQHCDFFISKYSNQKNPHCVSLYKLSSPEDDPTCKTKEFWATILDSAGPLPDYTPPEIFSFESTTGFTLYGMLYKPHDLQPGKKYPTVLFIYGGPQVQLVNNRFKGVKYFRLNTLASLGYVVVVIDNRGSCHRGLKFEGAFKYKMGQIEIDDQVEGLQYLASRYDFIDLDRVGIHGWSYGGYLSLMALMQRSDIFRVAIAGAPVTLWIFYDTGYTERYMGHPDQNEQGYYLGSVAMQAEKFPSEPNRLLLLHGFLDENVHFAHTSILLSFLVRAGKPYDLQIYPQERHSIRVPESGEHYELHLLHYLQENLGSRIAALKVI
T2 sequence (Q86TI2 whole entry): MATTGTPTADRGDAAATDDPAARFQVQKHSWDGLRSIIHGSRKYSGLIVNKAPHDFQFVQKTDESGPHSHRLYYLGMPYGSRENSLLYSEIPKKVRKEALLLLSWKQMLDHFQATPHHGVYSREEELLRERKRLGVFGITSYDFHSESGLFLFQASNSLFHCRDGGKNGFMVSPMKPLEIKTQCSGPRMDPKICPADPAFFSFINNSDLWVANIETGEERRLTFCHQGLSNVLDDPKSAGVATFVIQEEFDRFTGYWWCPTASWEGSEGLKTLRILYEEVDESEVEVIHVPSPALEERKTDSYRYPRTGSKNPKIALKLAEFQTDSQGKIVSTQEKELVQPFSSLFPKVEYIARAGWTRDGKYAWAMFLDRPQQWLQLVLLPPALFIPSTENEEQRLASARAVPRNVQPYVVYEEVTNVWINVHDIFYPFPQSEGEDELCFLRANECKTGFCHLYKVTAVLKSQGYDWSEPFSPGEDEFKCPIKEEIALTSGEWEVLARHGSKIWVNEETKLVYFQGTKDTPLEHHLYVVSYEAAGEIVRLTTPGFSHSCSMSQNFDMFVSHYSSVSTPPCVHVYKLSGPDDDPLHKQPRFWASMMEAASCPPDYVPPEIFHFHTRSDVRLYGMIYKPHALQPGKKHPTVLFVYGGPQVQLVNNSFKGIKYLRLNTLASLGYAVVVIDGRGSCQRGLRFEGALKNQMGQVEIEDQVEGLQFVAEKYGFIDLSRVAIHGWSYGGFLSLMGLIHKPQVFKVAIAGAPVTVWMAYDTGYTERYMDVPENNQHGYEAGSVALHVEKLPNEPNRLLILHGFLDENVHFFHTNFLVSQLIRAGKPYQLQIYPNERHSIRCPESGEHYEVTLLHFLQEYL
Chain of DPP4 (P27487 whole entry): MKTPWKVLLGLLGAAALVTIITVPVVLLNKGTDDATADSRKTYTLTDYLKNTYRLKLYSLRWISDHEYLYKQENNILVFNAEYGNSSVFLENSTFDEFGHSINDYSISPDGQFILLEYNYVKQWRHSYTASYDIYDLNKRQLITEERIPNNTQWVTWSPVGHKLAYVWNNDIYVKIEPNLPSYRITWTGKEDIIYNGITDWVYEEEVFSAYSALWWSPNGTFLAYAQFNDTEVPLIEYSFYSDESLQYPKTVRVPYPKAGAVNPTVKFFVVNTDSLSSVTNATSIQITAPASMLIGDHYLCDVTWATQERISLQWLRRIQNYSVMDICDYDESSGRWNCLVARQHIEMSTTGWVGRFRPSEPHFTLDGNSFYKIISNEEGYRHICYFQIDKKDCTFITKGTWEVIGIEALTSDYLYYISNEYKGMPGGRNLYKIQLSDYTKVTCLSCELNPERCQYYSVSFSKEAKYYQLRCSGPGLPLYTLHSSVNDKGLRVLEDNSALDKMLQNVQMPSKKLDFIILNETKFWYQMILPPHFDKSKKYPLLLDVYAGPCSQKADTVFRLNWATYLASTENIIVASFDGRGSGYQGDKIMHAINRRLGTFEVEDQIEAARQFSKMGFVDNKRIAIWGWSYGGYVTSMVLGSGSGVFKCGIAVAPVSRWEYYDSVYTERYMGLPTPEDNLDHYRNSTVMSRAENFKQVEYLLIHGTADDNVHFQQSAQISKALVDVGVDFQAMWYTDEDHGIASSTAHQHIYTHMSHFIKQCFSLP

Consider `N#C[C@@H]1C[C@H](F)CN1C(=O)CN1CCC(Nc2ccc(C(=O)Nc3cccnc3)c3ncccc23)CC1` [Example 405, 5-[[1-[2-oxo-2-[(2S,4S)-2-cyano-4-fluoro-pyrrolidin-1-yl]ethyl]-4-piperidyl]amino]-N-(3-pyridyl)quinoline-8-carboxamide], for which the pIC50 (commonly the negative decadic logarithm of the IC50, by convention in mol/L) was 7.18 in assay [1]; 6.40 in assay [2]; 5.66 in assay [3]; 8.72 in assay [4]; 6.41 in assay [6]. In assay [5], the IC50 (commonly the concentration that inhibits the measured activity by half) was 597 nM.
As for `Cc1cc(OC2CCN(CC(=O)N3C[C@@H](F)C[C@H]3C#N)CC2)c2ccccc2n1` [Example 436, (2S,4S)-4-fluoro-1-[2-[4-[(2-methyl-4-quinolyl)oxy]-1-piperidyl]acetyl]pyrrolidine-2-carbonitrile], the pIC50 in assay [1] is 4.93; in assay [2] it was 4.74; in assay [3] it was 5.04; in assay [4], 7.95; in assay [6], 5.07. Also, the IC50 in assay [5] was determined as 555 nM.
As to `CN(c1ccc(C(F)(F)F)c2ncccc12)[C@H]1CCN(CC(=O)N2C[C@@H](F)C[C@H]2C#N)C1` [Example 159, (2S,4S)-4-fluoro-1-[2-[(3S)-3-[methyl-[8-(trifluoromethyl)-5-quinolyl]amino]pyrrolidin-1-yl]acetyl]pyrrolidine-2-carbonitrile], the pIC50 in assay [1] is 5.12; in assay [2] it was 5.43; in assay [3], 5.73; in assay [4] it was 8.17; in assay [6], 7.21. Besides, the 50% inhibitory concentration (IC50) in assay [5] was 430 nM.
Regarding `CNC(=O)c1ccc(N[C@H]2CCN(CC(=O)N3C[C@@H](F)C[C@H]3C#N)C2)c2cccnc12` [Example 281, N-methyl-5-[[(3S)-1-[2-oxo-2-[(2S,4S)-2-cyano-4-fluoro-pyrrolidin-1-yl]ethyl]pyrrolidin-3-yl]amino]quinoline-8-carboxamide], the pIC50 was 5.35 in assay [1]; 5.58 in assay [2]; 5.56 in assay [3]; 8.47 in assay [4]; 5.95 in assay [6]. In addition, the IC50 in assay [5] turned out to be 2450 nM.
For `N#C[C@@H]1C[C@H](F)CN1C(=O)CN1CCC(Nc2ccc(C(=O)Nc3ccon3)c3ncccc23)CC1` [Example 407, N-isoxazol-3-yl-5-[[1-[2-oxo-2-[(2S,4S)-2-cyano-4-fluoro-pyrrolidin-1-yl]ethyl]-4-piperidyl]amino]quinoline-8-carboxamide], the negative logarithm of the IC50 (pIC50) was 6.50 in assay [1]; 6.12 in assay [2]; 5.74 in assay [3]; 8.47 in assay [4]; 6.40 in assay [6]. In addition, in assay [5], the IC50 is < 30 nM.
`N#C[C@@H]1C[C@H](F)CN1C(=O)CN1CCC(Oc2ccnc3cc(F)ccc23)CC1` [Example 433, (2S,4S)-4-fluoro-1-[2-[4-[(7-fluoro-4-quinolyl)oxy]-1-piperidyl]acetyl]pyrrolidine-2-carbonitrile]: the pIC50 in assay [1] is 5.51; in assay [2] it was 5.41; in assay [3] it was 5.25; in assay [4] it was 8.29; in assay [6], 5.51. Also, in assay [5], the IC50 was 98 nM.
Consider `N#C[C@@H]1C[C@H](F)CN1C(=O)CN1CCC(Nc2ccc(C(=O)Nc3ncccn3)c3ncccc23)CC1` [Example 403, 5-[[1-[2-oxo-2-[(2S,4S)-2-cyano-4-fluoro-pyrrolidin-1-yl]ethyl]-4-piperidyl]amino]-N-pyrimidin-2-yl-quinoline-8-carboxamide], for which the pIC50 in assay [1] was 6.60; in assay [2], 6.25; in assay [3], 5.68; in assay [4] it was 8.74; in assay [6], 6.39. The IC50 in assay [5] is 60.2 nM.
